According to patent publication US8669251B2, “8-fluorophthalazin-1(2H)-one compounds” (Genentech, Inc., priority 2011, dated 2014):

What follows are compounds tested on production of CD69 by B lymphocytes in human whole blood (assay: CD69 Whole Blood Assay (CD69 Hu Blood FACS)). Settings: human whole blood activated with goat F(ab')2 anti-human IgM, 20 hours; CD69 on CD20 positive cells by FACS; Table 1.
Assay type: cell-based
From the text: A CD69 Whole Blood Assay can be conducted on Formula I compounds to determine the ability of compounds to inhibit the production of CD69 by B lymphocytes in human whole blood activated by crosslinking surface IgM with goat F(ab′)2 anti-human IgM (Example 907). CD69 is a type II C-type lectin involved in lymphocyte migration and cytokine secretion. CD69 expression represents one of the earliest available indicators of leukocyte activation and its rapid induction occurs through transcriptional activation (Vazquez et al (2009) Jour. of Immunology Published Oct. 19, 2009, doi:10.4049/jimmunol.0900839). Concentration-dependent inhibition of antigen receptor stimulation by selective Btk inhibitors induces cell surface expression of the lymphocyte activation marker CD69 (Honigberg et al (2010) Proc. Natl. Acad. Sci. 107(29):13075-13080). Thus, CD69 inhibition by selective Btk inhibitors may be correlated with therapeutic efficacy of certain B-cell disorders.
Human blood is obtained from healthy volunteers, with the following restrictions: 1 week drug-free, non-smokers. Blood (approximately 20 mls to test 8 compounds) is collected by venipuncture into Vacutainer® (Becton, Dickinson and Co.) tubes with sodium heparin.
Solutions of Formula I and II compounds at 10 mM in DMSO are diluted 1:10 in 100% DMSO, then are diluted by three-fold serial dilutions in 100% DMSO for a ten point dose-response curve. The compounds are further diluted 1:10 in PBS and then an aliquot of 5.5 μl of each compound is added in duplicate to a 2 ml 96-well plate; 5.5 μl of 10% DMSO in PBS is added as control and no-stimulus wells. Human whole blood —HWB (100 μl) is added to each well. After mixing the plates are incubated at 37° C., 5% CO2, 100% humidity for 30 minutes. Goat F(ab′)2 anti-human IgM (10 μl of a 500 μg/ml solution, 50 μg/ml final) is added to each well (except the no-stimulus wells) with mixing and the plates are incubated for an additional 20 hours. At the end of the 20 hour incubation, samples are incubated with fluorescent labeled antibodies for 30 minutes, at 37° C., 5% CO2, 100% humidity. Include induced control, unstained and single stains for compensation adjustments and initial voltage settings. Samples are then lysed with PharM Lyse™ (BD Biosciences Pharmingen) according to the manufacturer's instructions. Samples are then transferred to a 96 well plate suitable to be run on the BD Biosciences HTS 96 well system on the LSRII machine. Data acquired and Mean Fluorescence Intensity values were obtained using BD Biosciences DIVA Software. Results are initially analyzed by FACS analysis software (Flow Jo). […] The inhibitory concentration (IC50, IC70, IC90) values are calculated by Prism version 5, using a nonlinear regression curve fit.

Row | Structure (SMILES) | CD69 Hu Blood FACS (IC70) [µM]
1 | Cn1cc(-c2ccnc(-n3ncc4cc(C(C)(C)C)cc(F)c4c3=O)c2CO)cc(Nc2ccc(N3CCN(C4COC4)CC3)cn2)c1=O [Compound 103, 6-tert-butyl-8-fluoro-2-(3-(hydroxymethyl)-4-(1-methyl-5-(5-(4-(oxetan-3-yl)piperazin-1-yl)pyridin-2-ylamino)-6-oxo-1,6dihydropyridin-3-yl)pyridin-2-yl)phthalazin-1(2H)-one] | 0.013

Same assay, conditions: human whole blood activated with goat F(ab')2 anti-human IgM, 20 hours; CD69 on CD20 positive cells by FACS; Table 2

Row | Structure (SMILES) | CD69 Hu Blood FACS (IC70) [µM]
2 | CCc1cc(Nc2cc(-c3ccnc(-n4ncc5cc(C(C)(C)C)cc(F)c5c4=O)c3CO)cn(C)c2=O)no1 [Compound 158, 6-tert-butyl-2-[4-[5-[(5-ethylisoxazol-3-yl)amino]-1-methyl-6-oxo-3-pyridyl]-3-(hydroxymethyl)-2-pyridyl]-8-fluoro-phthalazin-1-one] | 0.0667
3 | Cc1cnc(Nc2cc(-c3ccnc(-n4ncc5cc(C(C)(C)C)cc(F)c5c4=O)c3CO)cn(C)c2=O)o1 [Compound 125, 6-tert-butyl-8-fluoro-2-[3-(hydroxymethyl)-4-[1-methyl-5-[(5-methyloxazol-2-yl)amino]-6-oxo-3-pyridyl]-2-pyridyl]phthalazin-1-one] | 0.521
4 | CCn1nc(Nc2cc(-c3ccnc(-n4ncc5cc(C(C)(C)C)cc(F)c5c4=O)c3CO)cn(C)c2=O)cc1C [Compound 118, 6-tert-butyl-2-[4-[5-[(1-ethyl-5-methyl-pyrazol-3-yl)amino]-1-methyl-6-oxo-3-pyridyl]-3-(hydroxymethyl)-2-pyridyl]-8-fluoro-phthalazin-1-one] | 0.112
5 | Cn1cc(-c2ccnc(-n3ncc4cc(C(C)(C)C)cc(F)c4c3=O)c2CO)cc(Nc2cnn(C(F)F)n2)c1=O [Compound 159, 6-tert-butyl-2-[4-[5-[[2-(difluoromethyl)triazol-4-yl]amino]-1-methyl-6-oxo-3-pyridyl]-3-(hydroxymethyl)-2-pyridyl]-8-fluoro-phthalazin-1-one] | 0.208
6 | CC(C)N1Cc2cc(Nc3cc(-c4ccnc(-n5ncc6cc(C(C)(C)C)cc(F)c6c5=O)c4CO)cn(C)c3=O)nn2CC1=O [Compound 151, 6-tert-butyl-8-fluoro-2-[3-(hydroxymethyl)-4-[5-[(5-isopropyl-6-oxo-4,7-dihydropyrazolo[1,5-a]pyrazin-2-yl)amino]-1-methyl-6-oxo-3-pyridyl]-2-pyridyl]phthalazin-1-one] | 0.0141
7 | Cc1cc(Nc2cc(-c3ccnc(-n4ncc5cc(C(C)(C)C)cc(F)c5c4=O)c3CO)cn(C)c2=O)no1 [Compound 129, 6-tert-butyl-8-fluoro-2-[3-(hydroxymethyl)-4-[1-methyl-5-[(5-methylisoxazol-3-yl)amino]-6-oxo-3-pyridyl]-2-pyridyl]phthalazin-1-one] | 0.0488
8 | COCc1cc(Nc2cc(-c3ccnc(-n4ncc5cc(C(C)(C)C)cc(F)c5c4=O)c3CO)cn(C)c2=O)nn1C [Compound 143, 6-tert-butyl-8-fluoro-2-[3-(hydroxymethyl)-4-[5-[[5-(methoxymethyl)-1-methyl-pyrazol-3-yl]amino]-1-methyl-6-oxo-3-pyridyl]-2-pyridyl]phthalazin-1-one] | 0.0131
9 | Cc1cc(Nc2cc(-c3ccnc(-n4ncc5cc(C(C)(C)C)cc(F)c5c4=O)c3CO)cn(C)c2=O)ns1 [Compound 157, 6-tert-butyl-8-fluoro-2-[3-(hydroxymethyl)-4-[1-methyl-5-[(5-methylisothiazol-3-yl)amino]-6-oxo-3-pyridyl]-2-pyridyl]phthalazin-1-one] | 0.157
10 | CCn1ccc(Nc2cc(-c3ccnc(-n4ncc5cc(C(C)(C)C)cc(F)c5c4=O)c3CO)cn(C)c2=O)n1 [Compound 142, 6-tert-butyl-2-[4-[5-[(1-ethylpyrazol-3-yl)amino]-1-methyl-6-oxo-3-pyridyl]-3-(hydroxymethyl)-2-pyridyl]-8-fluoro-phthalazin-1-one] | 0.168
11 | Cn1cnc(Nc2cc(-c3ccnc(-n4ncc5cc(C(C)(C)C)cc(F)c5c4=O)c3CO)cn(C)c2=O)c1 [Compound 130, 6-tert-butyl-8-fluoro-2-[3-(hydroxymethyl)-4-[1-methyl-5-[(1-methylimidazol-4-yl)amino]-6-oxo-3-pyridyl]-2-pyridyl]phthalazin-1-one] | 0.152
12 | Cn1cc(-c2ccnc(-n3ncc4cc(C(C)(C)C)cc(F)c4c3=O)c2CO)cc(Nc2cc[nH]n2)c1=O [Compound 152, 6-tert-butyl-8-fluoro-2-[3-(hydroxymethyl)-4-[1-methyl-6-oxo-5-(1H-pyrazol-3-ylamino)-3-pyridyl]-2-pyridyl]phthalazin-1-one] | 0.0459
13 | C[C@H]1CN(C2COC2)CCN1c1ccc(Nc2cc(-c3ccnc(-n4ncc5cc(C(C)(C)C)cc(F)c5c4=O)c3CO)c[nH]c2=O)nc1 [Compound 138, 6-tert-butyl-8-fluoro-2-[3-(hydroxymethyl)-4-[5-[[5-[(2S)-2-methyl-4-(oxetan-3-yl)piperazin-1-yl]-2-pyridyl]amino]-6-oxo-1H-pyridin-3-yl]-2-pyridyl]phthalazin-1-one] | 0.0124
14 | Cc1nccc(Nc2cc(-c3ccnc(-n4ncc5cc(C(C)(C)C)cc(F)c5c4=O)c3CO)cn(C)c2=O)n1 [Compound 114, 6-tert-butyl-8-fluoro-2-[3-(hydroxymethyl)-4-[1-methyl-5-[(2-methylpyrimidin-4-yl)amino]-6-oxo-3-pyridyl]-2-pyridyl]phthalazin-1-one] | 0.0114
15 | Cc1cc(Nc2cc(-c3ccnc(-n4ncc5cc(C(C)(C)C)cc(F)c5c4=O)c3CO)nn(C)c2=O)no1 [Compound 141, 6-tert-butyl-8-fluoro-2-[3-(hydroxymethyl)-4-[1-methyl-5-[(5-methylisoxazol-3-yl)amino]-6-oxo-pyridazin-3-yl]-2-pyridyl]phthalazin-1-one] | 0.295
16 | Cn1nc(-c2ccnc(-n3ncc4cc(C(C)(C)C)cc(F)c4c3=O)c2CO)cc(Nc2ccc(C(=O)N3CCOCC3)cn2)c1=O [Compound 116, 6-tert-butyl-8-fluoro-2-[3-(hydroxymethyl)-4-[1-methyl-5-[[5-(morpholine-4-carbonyl)-2-pyridyl]amino]-6-oxo-pyridazin-3-yl]-2-pyridyl]phthalazin-1-one] | 0.0935
17 | COCCN1CCn2nc(Nc3cc(-c4ccnc(-n5ncc6cc(C(C)(C)C)cc(F)c6c5=O)c4CO)cn(C)c3=O)cc2C1 [Compound 133, 6-tert-butyl-8-fluoro-2-[3-(hydroxymethyl)-4-[5-[[5-(2-methoxyethyl)-6,7-dihydro-4H-pyrazolo[1,5-a]pyrazin-2-yl]amino]-1-methyl-6-oxo-3-pyridyl]-2-pyridyl]phthalazin-1-one] | 0.0145
18 | CCn1cc(Nc2nc(-c3ccnc(-n4ncc5cc(C(C)(C)C)cc(F)c5c4=O)c3CO)cn(C)c2=O)cn1 [Compound 123, 6-tert-butyl-2-[4-[6-[(1-ethylpyrazol-4-yl)amino]-4-methyl-5-oxo-pyrazin-2-yl]-3-(hydroxymethyl)-2-pyridyl]-8-fluoro-phthalazin-1-one] | 0.156
19 | CC1OCCn2nc(Nc3cc(-c4ccnc(-n5ncc6cc(C(C)(C)C)cc(F)c6c5=O)c4CO)cn(C)c3=O)cc21 (stereo not shown) [Compound 150, 6-tert-butyl-8-fluoro-2-[3-(hydroxymethyl)-4-[1-methyl-5-[(4-methyl-6,7-dihydro-4H-pyrazolo[5,1-c][1,4]oxazin-2-yl)amino]-6-oxo-3-pyridyl]-2-pyridyl]phthalazin-1-one] | 0.0428
